Experimental data: the supplement of paper PMC11061612

How the values were obtained:
[1] = test system: NEC8 (Other Solid Carcinomas); assay: combination Emax (second highest fraction inhibited in the dose matrix, 72 h); higher = more inhibition; extreme values may be limits of the assay
In short: (§1)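 After 24 hours at 37°C and 5% CO2 in 1536-well plates, cells in DMEM/F12 or RPMI plus 10% FBS received two-drug dose matrices for 72 hours. Viability came from CellTiter-Glo 2.0 luminescence and was scaled as inhibition, anchored at 0 by vehicle wells and at 1 by blank wells. Combination Emax is taken as the second-highest inhibition in the matrix, and Bliss excess as the observed combination effect less EA + EB − EA·EB, with EA and EB the single-agent effects.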

[2] = test system: OE19 (Esophageal Adenocarcinoma); assay: as above
In short: as §1

[3] = test system: OVCAR-4 (Ovarian Carcinoma); assay: as above
In short: as §1

PWR-1E (Non-Cancerous) [4] = assay: as above
In short: as §1

[5] = test system: OSC-20 (Oral Cavity Carcinoma); assay: as above
In short: as §1

[6] = test system: VA-ES-BJ (Other Solid Carcinomas); assay: as above
In short: as §1

[7] = test system: KMOE-2 (Acute Myeloid Leukemia); assay: as above
In short: as §1

[8] = test system: HSC-4 (Oral Cavity Carcinoma); assay: as above
In short: as §1

[9] = test system: TE-1 (Esophageal Squamous Cell Carcinoma); assay: as above
In short: as §1

[10] = test system: NUGC-3 (Gastric Carcinoma); assay: as above
In short: as §1

[11] = test system: SU8686 (Pancreatic Carcinoma); assay: as above
In short: as §1

[12] = test system: NCI-H1915 (Non-Small Cell Lung Carcinoma); assay: as above
In short: as §1

[13] = test system: C-4-I (Cervical Carcinoma); assay: as above
In short: as §1

[14] = test system: HOP-62 (Lung Adenocarcinoma); assay: as above
In short: as §1

[15] = test system: HGC-27 (Gastric Carcinoma); assay: as above
In short: as §1

[16] = test system: SCC-15 (Oral Cavity Carcinoma); assay: as above
In short: as §1

[17] = test system: NEC8 (Other Solid Carcinomas); assay: Bliss excess, mean over the matrix (fraction); higher = more synergy
In short: as §1

[18] = test system: OE19 (Esophageal Adenocarcinoma); assay: as above
In short: as §1

[19] = test system: OVCAR-4 (Ovarian Carcinoma); assay: as above
In short: as §1

PWR-1E (Non-Cancerous) [20] = assay: as above
In short: as §1

[21] = test system: OSC-20 (Oral Cavity Carcinoma); assay: as above
In short: as §1

[22] = test system: VA-ES-BJ (Other Solid Carcinomas); assay: as above
In short: as §1

[23] = test system: KMOE-2 (Acute Myeloid Leukemia); assay: as above
In short: as §1

[24] = test system: HSC-4 (Oral Cavity Carcinoma); assay: as above
In short: as §1

[25] = test system: TE-1 (Esophageal Squamous Cell Carcinoma); assay: as above
In short: as §1

[26] = test system: NUGC-3 (Gastric Carcinoma); assay: as above
In short: as §1

[27] = test system: SU8686 (Pancreatic Carcinoma); assay: as above
In short: as §1

[28] = test system: NCI-H1915 (Non-Small Cell Lung Carcinoma); assay: as above
In short: as §1

[29] = test system: C-4-I (Cervical Carcinoma); assay: as above
In short: as §1

[30] = test system: HOP-62 (Lung Adenocarcinoma); assay: as above
In short: as §1

[31] = test system: HGC-27 (Gastric Carcinoma); assay: as above
In short: as §1

[32] = test system: SCC-15 (Oral Cavity Carcinoma); assay: as above
In short: as §1
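For Bliss excess, mean over the matrix in this document: after 72 h of two-drug dosing.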

## CC(=O)c1c(C)c2cnc(Nc3ccc(N4CCNCC4)cn3)nc2n(C2CCCC2)c1=O [Palbociclib] + CN(CC[C@H](CSC1=CC=CC=C1)NC2=C(C=C(C=C2)S(=O)(=O)NC(=O)C3=CC=C(C=C3)N4CCC(CC4)[C@H](C5=CC=CC=C5C6=CC=C(C=C6)Cl)O)S(=O)(=O)C(F)(F)F)CCO [AZD4320] (first compound max 10 µM, 7x7, partner max 1 µM)
[1]
  combination Emax: 0.209
[2]
  combination Emax: 0.467
[3]
  combination Emax: 0.22
PWR-1E (Non-Cancerous) [4]
  combination Emax: 0.278
[5]
  combination Emax: 0.182
[6]
  combination Emax: 0.309
[7]
  combination Emax: 0.96
[8]
  combination Emax: 0.0868
[9]
  combination Emax: 0.439
[10]
  combination Emax: 0.714
[11]
  combination Emax: 0.0398
[12]
  combination Emax: 0.491
[13]
  combination Emax: 0.372
[14]
  combination Emax: 0.332
[15]
  combination Emax: 0.764
[16]
  combination Emax: 0.206
[17]
  Bliss excess: -0.0337
[18]
  Bliss excess: -0.0369
[19]
  Bliss excess: -0.0354
PWR-1E (Non-Cancerous) [20]
  Bliss excess: -0.0204
[21]
  Bliss excess: -0.0381
[22]
  Bliss excess: -0.0288
[23]
  Bliss excess: -0.0213
[24]
  Bliss excess: -0.0833
[25]
  Bliss excess: -0.0322
[26]
  Bliss excess: -0.0659
[27]
  Bliss excess: -0.0447
[28]
  Bliss excess: -0.0273
[29]
  Bliss excess: -0.0686
[30]
  Bliss excess: -0.0777
[31]
  Bliss excess: 0.0123
[32]
  Bliss excess: -0.0694

## COc1nnc2ccc(N3CCC(c4ccc(OCCN5CCN(C)C(=O)[C@H]5C)cc4)CC3)nn12 [AZD5153] + CN(CC[C@H](CSC1=CC=CC=C1)NC2=C(C=C(C=C2)S(=O)(=O)NC(=O)C3=CC=C(C=C3)N4CCC(CC4)[C@H](C5=CC=CC=C5C6=CC=C(C=C6)Cl)O)S(=O)(=O)C(F)(F)F)CCO [AZD4320] (first compound max 1 µM, 7x7, partner max 1 µM)
[1]
  combination Emax: 0.962
[2]
  combination Emax: 0.501
[3]
  combination Emax: 0.458
PWR-1E (Non-Cancerous) [4]
  combination Emax: 0.714
[5]
  combination Emax: 0.132
[6]
  combination Emax: 0.517
[7]
  combination Emax: 0.993
[8]
  combination Emax: 0.217
[9]
  combination Emax: 0.485
[10]
  combination Emax: 0.639
[11]
  combination Emax: 0.0559
[12]
  combination Emax: 0.57
[13]
  combination Emax: 0.762
[14]
  combination Emax: 0.635
[15]
  combination Emax: 0.772
[16]
  combination Emax: 0.39
[17]
  Bliss excess: 0.0236
[18]
  Bliss excess: 0.0208
[19]
  Bliss excess: 0.0377
PWR-1E (Non-Cancerous) [20]
  Bliss excess: 0.0243
[21]
  Bliss excess: -0.0543
[22]
  Bliss excess: 0.0839
[23]
  Bliss excess: 0.0295
[24]
  Bliss excess: -0.0287
[25]
  Bliss excess: -0.0193
[26]
  Bliss excess: 0.0423
[27]
  Bliss excess: -0.0373
[28]
  Bliss excess: 0.0678
[29]
  Bliss excess: 0.0692
[30]
  Bliss excess: 0.011
[31]
  Bliss excess: -0.0329
[32]
  Bliss excess: 0.001

## C[C@@H](c1ccc2nccn2c1)n1nnc2ncc(-c3cnn(C)c3)nc21 [Savolitinib] + CN(CC[C@H](CSC1=CC=CC=C1)NC2=C(C=C(C=C2)S(=O)(=O)NC(=O)C3=CC=C(C=C3)N4CCC(CC4)[C@H](C5=CC=CC=C5C6=CC=C(C=C6)Cl)O)S(=O)(=O)C(F)(F)F)CCO [AZD4320] (first compound max 1 µM, 7x7, partner max 1 µM)
[1]
  combination Emax: 0.302
[2]
  combination Emax: 0.22
[3]
  combination Emax: 0.126
PWR-1E (Non-Cancerous) [4]
  combination Emax: 0.211
[5]
  combination Emax: 0.129
[6]
  combination Emax: 0.182
[7]
  combination Emax: 0.59
[8]
  combination Emax: 0.24
[9]
  combination Emax: 0.289
[10]
  combination Emax: 0.279
[11]
  combination Emax: 0.173
[12]
  combination Emax: 0.132
[13]
  combination Emax: 0.234
[14]
  combination Emax: 0.122
[15]
  combination Emax: 0.233
[16]
  combination Emax: 0.29
[17]
  Bliss excess: -0.0021
[18]
  Bliss excess: -0.0091
[19]
  Bliss excess: -0.0293
PWR-1E (Non-Cancerous) [20]
  Bliss excess: -0.0221
[21]
  Bliss excess: -0.0626
[22]
  Bliss excess: -0.029
[23]
  Bliss excess: -0.0537
[24]
  Bliss excess: -0.0591
[25]
  Bliss excess: -0.0316
[26]
  Bliss excess: -0.0429
[27]
  Bliss excess: -0.0255
[28]
  Bliss excess: -0.0519
[29]
  Bliss excess: -0.0399
[30]
  Bliss excess: -0.0729
[31]
  Bliss excess: -0.0098
[32]
  Bliss excess: -0.0604
